Reference: US12649748B2, “Wee1 inhibitor and use thereof” (JIANGSU TASLY DIYI PHARMACEUTICAL CO., LTD., priority 2021, dated 2026)
Values after ≈ are worked out from the molar mass of the structure shown.

Experiments:
Wee1 protein = molecular target: T1, Wee1 protein (Homo sapiens, UniProt P30291); assay: Binding of compound to Wee1 protein and Tracer 178 by TR-FRET; conditions: inhibitory activity against Wee1 kinase, read-out: IC50 measured value
T1 construct: purchased Thermo Fisher PR7373A
Description: First, solutions of the compounds in different concentration gradients were prepared. […] DMSO was added as a positive control (maximal signal control) and a negative control (minimal signal control) and a final level of 0.25% DMSO was ensured in each reaction well.
WEE1 (Thermo Fisher, Cat #PR7373A) protein in buffer (50 mM Hepes pH 7.5, 10 mM MgCl2, 1 mM EGTA, 0.01% Brij-35) at 15 nM) in different concentrations of compound, and Tracer 178 (Invitrogen, PV5593) and MAb Anti-GST-Eu crypate (Cisbio, 61GSTKLA) were added to 384-well plates (Corning, cat #3574), centrifuged at 1000 rpm for 1 min and the 384-well plates were incubated in a constant temperature shaker for 60 min at 25° C. and 300 rpm. Tracer 178 and MAb Anti-GST-Eu crypate were prepared in buffer (50 mM HEPES pH 7.5, 10 mM MgCl2, 1 mM EGTA, 0.01% Brij-35) with a final reaction concentration of 50 nM for Tracer 178 and a final concentration of 2 nM for MAb Anti-GST-Eu crypate, where the negative control (minimal signal control) used an equal amount of buffer in place of the protein solution.
After incubation, readings were performed using BMG PHERAStar (excitation light at 337 nm and emission light at wavelength values of 620 nm and 665 nm to read the fluorescence signal values). […] The IC50 for inhibition of enzyme activity by the compounds was then calculated using GraphPad Prism 6 and fitted with a log (inhibitor) vs. response-Variable slope mode. The fitting equation was: Y=Bottom+(Top-Bottom)/(1+10^((Log IC50−X)*HillSlope)), where Y represents the percentage of residual enzyme activity known and X represents the known concentration of compound after the logarithm.

Solubility test = format: physicochemical; conditions: aqueous buffer, thermodynamic from solid; buffer solution, shaken at constant temperature 24 h
Description: The compound was placed in a buffer solution and shaken at constant temperature for 24 h. […] Chromatographic conditions: C18 column, mobile phase A: 0.02 M potassium dihydrogen phosphate:acetonitrile=90:10, mobile phase B: acetonitrile; V: 1.0 ml/min, T: 35° C., λ: 210 nm.

CYP2C19 = CYP2C19 (Homo sapiens, UniProt P33261); assay: Inhibition of cytochrome P450, CYP2C19; format: in vitro ADME; conditions: CYP2C19 enzyme, pH 7.4, probe EOMCC, read-out: CYP inhibition/% 2C19; for inhibition at 30 min, 1 µM: compound concentration 1 μM; for inhibition at 30 min, 10 µM: compound concentration 10 μM
Sequence of CYP2C19 (P33261 whole entry, canonical isoform): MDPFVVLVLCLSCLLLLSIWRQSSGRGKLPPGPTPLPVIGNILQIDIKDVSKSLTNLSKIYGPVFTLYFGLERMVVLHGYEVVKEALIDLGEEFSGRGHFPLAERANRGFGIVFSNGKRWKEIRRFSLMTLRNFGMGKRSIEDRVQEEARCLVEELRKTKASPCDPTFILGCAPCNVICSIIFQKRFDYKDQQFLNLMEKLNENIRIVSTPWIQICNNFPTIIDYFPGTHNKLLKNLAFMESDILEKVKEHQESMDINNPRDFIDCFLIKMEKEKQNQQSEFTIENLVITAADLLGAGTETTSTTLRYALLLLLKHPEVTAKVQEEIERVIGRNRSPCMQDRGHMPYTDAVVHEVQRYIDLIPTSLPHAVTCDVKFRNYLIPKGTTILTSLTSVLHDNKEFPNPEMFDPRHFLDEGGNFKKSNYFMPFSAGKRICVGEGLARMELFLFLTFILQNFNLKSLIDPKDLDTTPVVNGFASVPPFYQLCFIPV
Description: (§1) Enzymatic experiments were performed to quantify the inhibition of CYP450 enzyme activity of each isoform of CYP450 by small molecule inhibitors through fluorescence generated by the oxidation of the substrate by cytochrome P450. […] The Solution B composition used for the experiment was: 40 U/mL G6PDH (Sigma-aldrich, Cat #G6378). The substrate mix was 0.05× Solution A, 0.01× Solution B, 50 mM Potassium Phosphate, 0.01 mM BOMCC/0.01 mM EOMCC/0.001 mM DBOMF. […] The data were analyzed and processed using GraphPad Prism 6 software to obtain IC50 values.

CYP2C8 = molecular target: T2, CYP2C8 (Homo sapiens, UniProt P10632); assay: Inhibition of cytochrome P450, CYP2C8; format: in vitro ADME; conditions: CYP2C8 enzyme, pH 7.4, probe DBOMF, read-out: CYP inhibition/% 2C8; for inhibition at 30 min, 1 µM: compound concentration 1 μM; for inhibition at 30 min, 10 µM: compound concentration 10 μM
T2 sequence (P10632 1-490): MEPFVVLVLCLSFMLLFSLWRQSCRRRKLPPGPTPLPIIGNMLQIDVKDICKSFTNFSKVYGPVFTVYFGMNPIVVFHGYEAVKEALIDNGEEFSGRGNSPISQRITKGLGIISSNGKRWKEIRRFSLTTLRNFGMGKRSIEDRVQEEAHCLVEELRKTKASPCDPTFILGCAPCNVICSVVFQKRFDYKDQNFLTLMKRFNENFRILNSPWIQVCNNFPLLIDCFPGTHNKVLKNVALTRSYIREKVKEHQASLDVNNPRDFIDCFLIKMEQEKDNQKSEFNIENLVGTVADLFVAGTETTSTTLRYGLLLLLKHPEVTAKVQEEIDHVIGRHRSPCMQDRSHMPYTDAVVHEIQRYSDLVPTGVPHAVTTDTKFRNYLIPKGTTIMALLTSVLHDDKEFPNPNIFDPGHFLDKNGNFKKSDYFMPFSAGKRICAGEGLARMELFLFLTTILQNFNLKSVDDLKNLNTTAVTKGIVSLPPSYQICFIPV
Description: as §1

CYP3A4 = CYP3A4 (Homo sapiens, UniProt P08684); assay: Inhibition of cytochrome P450, CYP3A4; format: in vitro ADME; conditions: CYP3A4 enzyme, pH 7.4, probe BOMCC, read-out: CYP inhibition/% 3A4; for inhibition at 30 min, 1 µM: compound concentration 1 μM; for inhibition at 30 min, 10 µM: compound concentration 10 μM
Sequence of CYP3A4 (P08684 whole entry): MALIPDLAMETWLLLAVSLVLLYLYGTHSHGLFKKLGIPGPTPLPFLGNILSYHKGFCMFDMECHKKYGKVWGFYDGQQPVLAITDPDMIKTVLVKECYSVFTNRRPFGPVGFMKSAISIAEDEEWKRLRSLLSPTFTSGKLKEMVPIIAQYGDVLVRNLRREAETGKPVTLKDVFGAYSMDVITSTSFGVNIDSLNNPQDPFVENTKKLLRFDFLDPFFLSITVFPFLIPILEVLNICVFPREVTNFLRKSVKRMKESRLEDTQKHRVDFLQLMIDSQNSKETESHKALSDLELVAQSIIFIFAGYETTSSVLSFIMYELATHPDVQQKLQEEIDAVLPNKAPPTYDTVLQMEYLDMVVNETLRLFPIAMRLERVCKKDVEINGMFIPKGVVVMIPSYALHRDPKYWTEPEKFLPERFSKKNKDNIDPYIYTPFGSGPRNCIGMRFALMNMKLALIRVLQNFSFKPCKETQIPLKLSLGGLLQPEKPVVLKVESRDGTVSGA
Description: as §1

T1 sequence (P30291 whole entry): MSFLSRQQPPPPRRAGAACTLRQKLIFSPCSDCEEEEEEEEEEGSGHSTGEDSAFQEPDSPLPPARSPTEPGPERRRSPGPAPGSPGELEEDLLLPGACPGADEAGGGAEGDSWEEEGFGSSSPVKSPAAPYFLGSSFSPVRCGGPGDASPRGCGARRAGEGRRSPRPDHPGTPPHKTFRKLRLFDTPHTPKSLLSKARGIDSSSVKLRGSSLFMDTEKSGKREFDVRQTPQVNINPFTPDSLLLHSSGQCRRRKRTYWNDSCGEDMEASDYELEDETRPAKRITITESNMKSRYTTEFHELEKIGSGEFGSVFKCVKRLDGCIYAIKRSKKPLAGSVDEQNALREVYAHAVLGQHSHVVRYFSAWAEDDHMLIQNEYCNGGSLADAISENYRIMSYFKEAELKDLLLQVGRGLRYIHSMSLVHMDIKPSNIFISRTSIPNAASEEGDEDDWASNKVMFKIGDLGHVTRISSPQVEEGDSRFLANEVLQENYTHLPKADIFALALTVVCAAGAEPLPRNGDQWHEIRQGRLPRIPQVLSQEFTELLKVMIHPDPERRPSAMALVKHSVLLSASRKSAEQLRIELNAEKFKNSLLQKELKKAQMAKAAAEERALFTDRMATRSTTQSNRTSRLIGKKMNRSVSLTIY

Row | SMILES | IC50 (Wee1 protein) | solubility at 24 h (Solubility test) | inhibition at 30 min, 1 µM (CYP2C19) | inhibition at 30 min, 10 µM (CYP2C19) | inhibition at 30 min, 1 µM (CYP2C8) | inhibition at 30 min, 10 µM (CYP2C8) | inhibition at 30 min, 1 µM (CYP3A4) | inhibition at 30 min, 10 µM (CYP3A4)
1 | CS(C)(=O)=Nc1cccc(-n2ncc3cnc(Nc4ccc(N5CCOCC5)cc4)nc32)n1 [Compound 6] | 10 to 100 nM | – | -16.5% | -8.3% | -14.3% | 20.9% | -26.1% | -25.7%
2 | CN1CCN(c2ccc(Nc3ncc4cnn(-c5cccc(N=S(C)(C)=O)n5)c4n3)cc2)CC1 [Compound 1] | 1 to 10 nM | 120 µg/mL (≈ 251 µM) | 3.3% | 10.7% | -5.3% | 3.2% | 8.1% | 10.9%
3 | Cc1cc(Nc2ncc3cnn(-c4cccc(N=S(C)(C)=O)n4)c3n2)ccc1N1CCC(N(C)C)CC1 [Compound 14] | 1 to 10 nM | – | – | – | – | – | – | –

Continued, values first:

Row | IC50 (Wee1 protein) | solubility at 24 h (Solubility test) | inhibition at 30 min, 1 µM (CYP2C19) | inhibition at 30 min, 10 µM (CYP2C19) | inhibition at 30 min, 1 µM (CYP2C8) | inhibition at 30 min, 10 µM (CYP2C8) | inhibition at 30 min, 1 µM (CYP3A4) | inhibition at 30 min, 10 µM (CYP3A4) | SMILES
4 | 1 to 10 nM | 350 µg/mL (≈ 712 µM) | – | – | – | – | – | – | Cc1cc(Nc2ncc3cnn(-c4cccc(N=S(C)(C)=O)n4)c3n2)ccc1N1CCN(C)CC1 [Compound 16]
5 | – | 30 µg/mL (≈ 59.9 µM) | – | – | – | – | – | – | C=CCn1c(=O)c2cnc(Nc3ccc(N4CCN(C)CC4)cc3)nc2n1-c1cccc(C(C)(C)O)n1 [AZD-1775, reference compound]
6 | 10 to 100 nM | – | 3.8% | 9.8% | -11% | 0.24% | 0% | -10.6% | CN1CCN(c2ccc(Nc3ncc4cnn(-c5cccc(C(C)(C)O)n5)c4n3)cc2)CC1 [Compound 2]
